Legend:
[1] = excess molar enthalpy (molar enthalpy of mixing); xn = mol fraction of the nth substance listed; conditions: Liquid, Flow calorimetry
[2] = Liquid, Closed cell (Static) method

CC(=O)N(C)C [N,N-dimethylethanamide] + c1ccccc1
[1], 413.15 K, 1824 kPa
Conditions	excess molar enthalpy [kcal/mol]
x2 = 0.0261	-0.0033
x2 = 0.0522	-0.00617
x2 = 0.1042	-0.0116
x2 = 0.1817	-0.0187
x2 = 0.2586	-0.0239
x2 = 0.3604	-0.0277
x2 = 0.4361	-0.0275
x2 = 0.5114	-0.0241
x2 = 0.5861	-0.0193
x2 = 0.6603	-0.0129
x2 = 0.7584	-0.00356
x2 = 0.8315	0.00311
x2 = 0.904	0.00703
x2 = 0.9521	0.00629
x2 = 0.9761	0.00411

CCO [ethanol]
Conditions	vapor or sublimation pressure [kPa]
[2], 353.15 K	108.42

CC(=O)N(C)C [N,N-dimethylethanamide] + CCOC(C)=O
[1], 323.15 K, 1307 kPa
Conditions	excess molar enthalpy [kcal/mol]
x2 = 0.0476	0.00669
x2 = 0.0954	0.0126
x2 = 0.1435	0.0188
x2 = 0.1918	0.0239
x2 = 0.2404	0.0284
x2 = 0.2892	0.0327
x2 = 0.3383	0.0361
x2 = 0.3876	0.0392
x2 = 0.4372	0.0413
x2 = 0.487	0.043
x2 = 0.5371	0.044
x2 = 0.5875	0.0437
x2 = 0.6381	0.043
x2 = 0.689	0.0409
x2 = 0.7401	0.0382
x2 = 0.7916	0.0344
x2 = 0.8433	0.0287
x2 = 0.8952	0.0212
x2 = 0.9475	0.0119

c1ccccc1 [benzene]
Conditions	vapor or sublimation pressure [kPa]
[2], 328.15 K	43.65

CC(=O)N(C)C [N,N-dimethylethanamide] + CCO
[1], 413.15 K, 1824 kPa
Conditions	excess molar enthalpy [kcal/mol]
x2 = 0.0774	-0.0421
x2 = 0.1505	-0.077
x2 = 0.2528	-0.116
x2 = 0.3471	-0.143
x2 = 0.462	-0.163
x2 = 0.541	-0.168
x2 = 0.6146	-0.166
x2 = 0.6833	-0.154
x2 = 0.7476	-0.138
x2 = 0.8271	-0.109
x2 = 0.8826	-0.0805
x2 = 0.9349	-0.049
x2 = 0.9681	-0.0258

ClCCl [dichloromethane]
Conditions	vapor or sublimation pressure [kPa]
[2], 333.15 K	197.94

CC(=O)N(C)C [N,N-dimethylethanamide] + Cc1ccccc1
[1]
Conditions	excess molar enthalpy [kcal/mol]
363.15 K, 1955 kPa, x2 = 0.0436	0.00378
363.15 K, 1955 kPa, x2 = 0.0878	0.00686
363.15 K, 1955 kPa, x2 = 0.1327	0.0102
363.15 K, 1955 kPa, x2 = 0.1781	0.0134
363.15 K, 1955 kPa, x2 = 0.2242	0.0163
363.15 K, 1955 kPa, x2 = 0.2709	0.0193
363.15 K, 1955 kPa, x2 = 0.3182	0.0232
363.15 K, 1955 kPa, x2 = 0.3662	0.0263
363.15 K, 1955 kPa, x2 = 0.4149	0.0292
363.15 K, 1955 kPa, x2 = 0.4643	0.0318
363.15 K, 1955 kPa, x2 = 0.5144	0.0344
363.15 K, 1955 kPa, x2 = 0.5652	0.0361
363.15 K, 1955 kPa, x2 = 0.6168	0.0368
363.15 K, 1955 kPa, x2 = 0.6691	0.038
363.15 K, 1955 kPa, x2 = 0.7222	0.0385
363.15 K, 1955 kPa, x2 = 0.7761	0.0375
363.15 K, 1955 kPa, x2 = 0.8308	0.0349
363.15 K, 1955 kPa, x2 = 0.8864	0.0289
363.15 K, 1955 kPa, x2 = 0.9428	0.0178
413.15 K, 1824 kPa, x2 = 0.022	0.00251
413.15 K, 1824 kPa, x2 = 0.0441	0.00528
413.15 K, 1824 kPa, x2 = 0.0887	0.00963
413.15 K, 1824 kPa, x2 = 0.1338	0.014
413.15 K, 1824 kPa, x2 = 0.1796	0.0186
413.15 K, 1824 kPa, x2 = 0.2259	0.0225
413.15 K, 1824 kPa, x2 = 0.2728	0.0265
413.15 K, 1824 kPa, x2 = 0.3204	0.0311
413.15 K, 1824 kPa, x2 = 0.3686	0.0354
413.15 K, 1824 kPa, x2 = 0.4174	0.0406
413.15 K, 1824 kPa, x2 = 0.4668	0.0449
413.15 K, 1824 kPa, x2 = 0.5169	0.0485
413.15 K, 1824 kPa, x2 = 0.5677	0.0523
413.15 K, 1824 kPa, x2 = 0.6192	0.0554
413.15 K, 1824 kPa, x2 = 0.6714	0.0571
413.15 K, 1824 kPa, x2 = 0.7243	0.0576
413.15 K, 1824 kPa, x2 = 0.7779	0.0557
413.15 K, 1824 kPa, x2 = 0.8323	0.0497
413.15 K, 1824 kPa, x2 = 0.8874	0.0406
413.15 K, 1824 kPa, x2 = 0.9433	0.0246
413.15 K, 1824 kPa, x2 = 0.9715	0.0134

C=CCCCCCC [oct-1-ene] + CC(=O)N(C)C
[1], 363.15 K, 1858 kPa
Conditions	excess molar enthalpy [kcal/mol]
x1 = 0.03	0.0437
x1 = 0.0612	0.0906
x1 = 0.0938	0.135
x1 = 0.1279	0.176
x1 = 0.1636	0.213
x1 = 0.201	0.249
x1 = 0.2401	0.281
x1 = 0.2812	0.31
x1 = 0.3244	0.336
x1 = 0.3698	0.357
x1 = 0.4177	0.37
x1 = 0.4682	0.379
x1 = 0.5215	0.383
x1 = 0.5779	0.38
x1 = 0.6377	0.368
x1 = 0.7013	0.344
x1 = 0.7688	0.304
x1 = 0.8408	0.243
x1 = 0.9177	0.149

CCCCCCC [heptane]
Conditions	vapor or sublimation pressure [kPa]
[2], 353.15 K	57.09
